Measured values published in patent US20150218212A1, “FLUORINATED EPOXYKETONE-BASED TETRAPEPTIDE COMPOUNDS AND USES THEREOF AS PROTEASOME INHIBITORS” (FLUORINOV PHARMA INC., priority 2012, published 2015).
Read-outs that look alike come from different tables or passages of the source.

What was measured:
[1] = biological target: T1, proteasome Chymotrypsin-like (CT-L) activity (Mus musculus, UniProt O09061+O55234); assay: Pharmacodynamic proteasome activity in murine red blood cells, CT-L; format: in vivo, NOD/SCID mice; conditions: iv, mice, 2 mg/kg i.v.
T1 construct: RBCs were lysed with assay lysis buffer and incubated on ice for 30 minutes; from tissue; host or cells: red blood cells of NOD/SCID mice
Procedure: Cells were harvested by centrifugation at 1,200 rpm at room temperature. Cell pellets were washed with PBS (phosphate buffered saline) and lysed with assay lysis buffer (50 mM HEPES (N-2-hydroxyethylpiperazine-N′-2-ethanesulfonic acid), pH 7.5; 150 mM NaCl; 1% Triton X-100; 2 mM ATP). Cell lysates were incubated on ice for 30 minutes, mixed by vortex every 5 minutes, and then centrifuged at 12,000 g for 10 minutes. The supernatant was transferred to a 96-well plate. For each assay, 10 μg of total protein were incubated for 1 hour at 37° C. with increasing concentrations (1 nM to 10 μM) of test compound diluted in assay buffer (50 mM tris-HCl (tris(hydroxymethyl)aminomethane-HCl), pH 7.5; 150 mM NaCl). DMSO alone was used as a control in every assay plate. After incubation, a specific fluorogenic proteasome substrate was added to each assay reaction at a final concentration of 40 μM in a total volume of 100 μL. N-Succinyl-Leu-Leu-Val-Tyr-7-amino-4-methylcoumarin (Suc-Leu-Leu-Val-Tyr-AMC) was used for measuring chymotrypsin-like (CT-L) activity, t-butoxycarbonyl-Leu-Arg-Arg-7-amino-4-methylcoumarin (Boc-Leu-Arg-Arg-AMC) for trypsin-like (T-L) activity, and benzyloxycarbonyl-L-leucyl-L-leucyl-L-glutamyl-7-amino-4-methylcoumarin (Z-Leu-Leu-Glu-AMC) for caspase-like (C-L) activity. The excitation wavelength was set at 360 nm and the fluorescence emission wavelength of AMC was detected at 460 nm. The fluorescence of free AMC released during the enzymatic reaction was measured with a SpectraMax M5 fluorescent spectrophotometric plate reader (Molecular Devices, Sunnyvale, Calif.). AMC release rate was measured at 37° C. in a kinetic mode, recording every 5 minutes for 30 minutes. Experiments were performed in triplicate and repeated at least twice.
All mouse experiments were performed in accordance with approval from the Ontario Cancer Institute institutional animal review board. Five- to six-week-old male non-obese diabetic/severe combined immunodeficient (NOD/SCID) mice were grouped randomly (n=3 mice per group). Mice were administered vehicle (5% DMSO, 20% Cremophor) or compounds of Formula I at different doses either intravenously or by oral gavage, and venous blood samples (20-50 μL) were collected from each mouse over 24 hours. Blood samples were mixed with heparin (APP Pharmaceuticals; Schaumburg, Ill.) in 0.5 mL tubes in accordance with the manufacturer's instructions. After centrifugal separation at 3,000 g for 10 minutes, red blood cells (RBCs) in the bottom layer were transferred into a new tube and stored at −70° C. until use. RBCs were lysed with assay lysis buffer and incubated on ice for 30 minutes, mixing by vortex every 5 minutes, and then centrifuged at 12,000 g for 10 minutes. The supernatant was transferred to a 96-well plate and proteasome activity was measured as described above for tumor cell lysates.
Proteasome subunit activity (Chymotrypsin-like, Trypsin-like, Caspase-like, CT-L, T-L, C-L, respectively) were monitored over the course of 24 hrs following […] administration of representative compounds of Formula I. NOD/SCID mice were treated with compounds of Formula I (2 mg/kg by iv administration) or vehicle control and carfilzomib for up to 24 hours, as described above. Table 9 summarizes the data on pharmacodynamic activity of representative compounds of Formula I following a dose of 2 mg/kg intravenous (i.v) administration to mice. Data are presented as mean residual activity (SEM) relative to vehicle treated controls.

SF-539 = assay: NCI screening panel, SF-539 (CNS Cancer); format: cell-based, human
Procedure: Representative compounds of Formula I were screened using the National Cancer Institute (NCI) screening panel, which consists of a panel of human tumor cell lines, representing leukemia, melanoma, and cancers of the lung, colon, ovary, breast, prostate and renal system.
After 24 h, two plates of each cell line are fixed in situ with TCA, to represent a measurement of the cell population for each cell line at the time of drug addition (Tz). Experimental drugs are solubilised in dimethyl sulfoxide at 400-fold the desired final maximum test concentration and stored frozen prior to use. At the time of drug addition, an aliquot of frozen concentrate is thawed and diluted to twice the desired final maximum test concentration with complete medium containing 50 μg/mL gentamicin. Additional four, 10-fold or ½ log serial dilutions are made to provide a total of five drug concentrations plus control. Aliquots of 100 μl of these different drug dilutions are added to the appropriate microtiter wells already containing 100 μl of medium, resulting in the required final drug concentrations.
Following drug addition, the plates are incubated for an additional 48 h at 37° C., 5% CO2, 95% air, and 100% relative humidity. For adherent cells, the assay is terminated by the addition of cold TCA (trichloroacetic acid). Cells are fixed in situ by the gentle addition of 50 μl of cold 50% (w/v) TCA (final concentration, 10% TCA) and incubated for 60 minutes at 4° C. The supernatant is discarded, and the plates are washed five times with tap water and air dried. Sulforhodamine B (SRB) solution (100 μl) at 0.4% (w/v) in 1% acetic acid is added to each well, and plates are incubated for 10 minutes at room temperature. After staining, unbound dye is removed by washing five times with 1% acetic acid and the plates are air dried. Bound stain is subsequently solubilised with 10 mM trizma base, and the absorbance is read on an automated plate reader at a wavelength of 515 nm. For suspension cells, the methodology is the same except that the assay is terminated by fixing settled cells at the bottom of the wells by gently adding 50 μl of 80% TCA (final concentration, 16% TCA). Using the seven absorbance measurements [time zero, (Tz), control growth, (C), and test growth in the presence of drug at the five concentration levels (Ti)], the percentage growth is calculated at each of the drug concentrations levels. Percentage growth inhibition is calculated as: [(Ti−Tz)/(C−Tz)]×100 for concentrations for which Ti>/=Tz and [(Ti−Tz)/Tz]×100 for concentrations for which Ti<Tz.
Three dose response parameters are calculated for each experimental agent. Growth inhibition of 50% (GI50) is calculated from [(Ti−Tz)/(C−Tz)]×100=50, which is the drug concentration resulting in a 50% reduction in the net protein increase (as measured by SRB staining) in control cells during the drug incubation. The drug concentration resulting in total growth inhibition (TGI) is calculated from Ti=Tz. The LC50 (concentration of drug resulting in a 50% reduction in the measured protein at the end of the drug treatment as compared to that at the beginning) indicating a net loss of cells following treatment is calculated from [(Ti−Tz)/Tz]×100=−50. Values are calculated for each of these three parameters if the level of activity is reached. However, if the effect is not reached or is exceeded, the value for that parameter is expressed as greater or less than the maximum or minimum concentration tested.

[2] = 30 min, read-out: Chymotrypsin-like (CT-L) mean residual activity relative to vehicle treated controls
[3] = 24 hrs, read-out: Chymotrypsin-like (CT-L) mean residual activity relative to vehicle treated controls
[4] = time 0, read-out: Chymotrypsin-like (CT-L) mean residual activity relative to vehicle treated controls

| Compound | remaining activity at 2 mg/kg [1, 2] [%] | remaining activity at 2 mg/kg [1, 3] [%] | remaining activity at 2 mg/kg [1, 4] [%] | Log10GI50 (SF-539) | Log10LC50 (SF-539) | Log10TGI50 (SF-539) |
| --- | --- | --- | --- | --- | --- | --- |
| CC(C)C[C@H](NC(=O)[C@H](COC(F)F)NC(=O)CN1CCOCC1)C(=O)N[C@@H](COC(F)F)C(=O)N[C@@H](CC(C)C)C(=O)[C@@]1(C)CO1 [Example 1, (2S)—N-[(1S)-1-(difluoromethoxymethyl)-2-[[(1S)-3-methyl-1-[(2R)-2-methyloxirane-2-carbonyl]butyl]amino]-2-oxo-ethyl]-2-[[(2S)-3-(difluoromethoxy)-2-[(2-morpholinoacetyl)amino]propanoyl]amino]-4-methyl-pentanamide] | 20 | 21 | 100 | −7.78 | −6.62 | −7.35 |
| CC(C)C[C@H](NC(=O)[C@H](COC(F)F)NC(=O)CN1CCOCC1)C(=O)N[C@@H](Cc1ccccc1)C(=O)N[C@@H](CC(C)C)C(=O)[C@@]1(C)CO1 [Example 2, (2S)-N-[(1S)-1-benzyl-2-[[(1S)-3-methyl-1-[(2R)-2-methyloxirane-2-carbonyl]butyl]-amino]-2-oxo-ethyl]-2-[[(2S)-3-(difluoromethoxy)-2-[(2-morpholinoacetyl)amino]propanoyl]amino]-4-methyl-pentanamide] | 29 | 24 | 100 | −7.87 | −7.06 | −7.46 |
| CC(C)C[C@H](NC(=O)[C@H](COC(F)F)NC(=O)CN1CCOCC1)C(=O)N[C@@H](Cc1ccccc1)C(=O)N[C@@H](Cc1ccccc1)C(=O)[C@@]1(C)CO1 [Example 3, (2S)-N-[(1S)-1-benzyl-2-[[(1S)-1-benzyl-2-[(2R)-2-methyloxiran-2-yl]-2-oxo-ethyl]amino]-2-oxo-ethyl]-2-[[(2S)-3-(difluoromethoxy)-2-[(2-morpholinoacetyl)-amino]propanoyl]amino]-4-methyl-pentan-amide] | 29 | 31 | 100 | <−8.00 | −4.07 | −7.42 |
| CC(C)C[C@H](NC(=O)[C@H](COC(F)F)NC(=O)CN1CCOCC1)C(=O)N[C@@H](COC(F)F)C(=O)N[C@@H](Cc1ccccc1)C(=O)[C@@]1(C)CO1 [Example 4, (2S)-N-[(1S)-2-[[(1S)-1-benzyl-2-[(2R)-2-methyloxiran-2-yl]-2-oxo-ethyl]amino]-1-(difluoromethoxymethyl)-2-oxo-ethyl]-2-[[(2S)-3-(difluoromethoxy)-2-[(2-mor-pholinoacetyl)amino]propanoyl]amino]-4 methyl-pentanamide] | 34 | 37 | 100 | −7.64 | −5.26 | −7.22 |
| CC(C)C[C@H](NC(=O)[C@H](COC(F)F)NC(=O)[C@H](COC(F)F)NC(=O)[C@H](CCc1ccccc1)NC(=O)CN1CCOCC1)C(=O)[C@@]1(C)CO1 [Example 7, (2S)-N-[(1S)-1-(difluoromethoxymethyl)-2-[[(1S)-1-(difluoromethoxymethyl)-2-[[(1S)-3-methyl-1-[(2R)-2-methyloxirane-2-carbo-nyl]butyl]amino]-2-oxo-ethyl]amino]-2-oxo-ethyl]-2-[(2-morpholinoacetyl)amino]-4-phenyl-butanamide] | 35 | 30 | 100 | −7.74 | −4.26 | −7.20 |
| CC(C)C[C@H](NC(=O)[C@H](Cc1ccccc1)NC(=O)[C@H](COC(F)F)NC(=O)[C@H](COC(F)F)NC(=O)CN1CCOCC1)C(=O)[C@@]1(C)CO1 [Example 11, (2S)-2-[[(2S)-3-(difluoromethoxy)-2-[[(2S)-3-(difluoromethoxy)-2-[(2-morpholinoacetyl)-amino]propanoyl]amino]propanoyl]amino]-N-[(1S)-3-methyl-1-[(2R)-2-methyloxirane-2-carbonyl]butyl]-3-phenyl-propanamide] | 30 | 28 | 100 | −7.66 | −5.48 | −7.21 |
| CC(C)C[C@H](NC(=O)[C@H](COC(F)F)NC(=O)[C@H](COC(F)F)NC(=O)[C@H](COC(F)F)NC(=O)CN1CCOCC1)C(=O)[C@@]1(C)CO1 [Example 17, (2S)-3-(difluoromethoxy)-N-[(1S)-1-(difluoromethoxymethyl)-2-[[(1S)-1-(difluoro-methoxymethyl)-2-[[(1S)-3-methyl-1-[(2R)-2-methyloxirane-2-carbonyl]butyl]amino]-2-oxo-ethyl]amino]-2-oxo-ethyl]-2-[(2-mor-pholinoacetyl)amino]-propanamide] | 25 | 23 | 100 | −7.38 | – | −6.67 |
